The source of these data is patent US20220402867A1, “SULFO-SUBSTITUTED BIARYL COMPOUND OR SALT THEREOF, PREPARATION METHOD THEREFOR, AND USE THEREOF” (Shanghai Litedd Co., Ltd., priority 2019, published 2022).

For data set [1], the system named is human PBMC (Th17 cells). The data set can be described thus: Th17 differentiation and IL-17 secretion in human PBMC. The note with it: IL-17 ELISA after 48 hours; for Emax: maximum activation rate. The format is cell-based. The procedure: Test procedure: PBMC cells were first thawed and plated, and then stimulated with stimulating factors (anti-hCD28: 5 μg/mL; rhTGF-β1: 5 ng/mL; rhIL-6: 20 ng/mL; rhIL-23: 10 ng/Ml) to differentiate to Th17, while adding different concentrations of compounds. All test compounds were serially diluted at 3-fold dilution with DMSO, with 8 serial dilutions starting from the maximum concentration 3 μM. The supermatants were collected after 48 hours for IL-17 ELISA detection, and compared with the solvent group, to determine the activation rate of the compounds on Th17 cells to secrete IL-17. EC50 values were fitted with Graphad8.0, and the TOP values fitted by the software was Emax %.

Data set [2] can be described thus: Metabolic stability in mouse liver microsomes. The format is in vitro ADME, CD-1 mice. The note with it: for half-life: CD-1; for microsomal CLint: CD-1, 0.5 mg protein/mL. The method, boiled down: (§1)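 Compound incubated at 37 °C with 0.5 mg protein/mL liver microsomes plus cofactors in PBS, sampled at 0–60 min, quenched with cold acetonitrile and quantified by HPLC-MS/MS (n=3). Half-life and Clint (μL/min/mg) come from the slope of ln(% remaining) versus time.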

Data set [3] has as its target T1, RORγt (RORγ-LBD chimeric receptor) (Homo sapiens, UniProt P51449).
T1 construct: host or cells: HEK293T
T1 sequence (P51449 269-508 limits assumed): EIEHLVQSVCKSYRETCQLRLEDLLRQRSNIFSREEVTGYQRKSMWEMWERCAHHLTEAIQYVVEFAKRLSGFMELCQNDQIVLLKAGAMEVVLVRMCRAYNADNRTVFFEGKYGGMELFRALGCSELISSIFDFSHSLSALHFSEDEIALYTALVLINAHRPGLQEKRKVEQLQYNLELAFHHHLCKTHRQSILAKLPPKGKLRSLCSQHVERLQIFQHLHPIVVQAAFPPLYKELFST
Briefly: Luciferase reporter gene assay of RORγt agonistic activity in HEK293T cells. More on the design: Emax: dose or concentration left out as unconfirmed. The note with it: for EC50: HEK293T, GAL4 luciferase reporter, read-out: EC50; for Emax: HEK-293T. The format is cell-based. In short, it runs like this: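 EC50 derived from % activity (relative to positive control and vehicle) versus log concentration, using luciferase luminescence in transfected HEK293T cells. The cells carried a RORγ-LBD/GAL4 chimera plus a GAL4-promoter reporter; compounds were 3-fold serially diluted, 10 points from a 10 mM DMSO stock.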

In data set [4] the target is T2, GST-RORγ LBD (263-509) (Homo sapiens, UniProt P51449).
T2 construct: GST-RORγ LBD ((263-509) (produced at ChemPartner))
T2 sequence (P51449 263-509): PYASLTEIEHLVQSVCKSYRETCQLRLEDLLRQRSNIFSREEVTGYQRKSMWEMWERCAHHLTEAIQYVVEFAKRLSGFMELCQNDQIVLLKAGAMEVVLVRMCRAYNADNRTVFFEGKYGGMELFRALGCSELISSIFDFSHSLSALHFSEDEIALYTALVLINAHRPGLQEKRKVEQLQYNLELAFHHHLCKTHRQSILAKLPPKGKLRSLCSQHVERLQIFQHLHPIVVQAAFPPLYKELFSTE
The data set can be described thus: TR-FRET assay of agonistic activity on RORγ receptor. The note with it: for EC50: TR-FRET, GST-RORγ LBD with Biotin-SRC1. The format is biochemical. In short, it runs like this:
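GST-RORγ LBD (75 nM solution) mixed 1:1 with Biotin-SRC1 (4 nM solution), then with Eu anti-GST and SA-APC; compounds in 10-point 3-fold series from 10 mM stock, duplicate.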

Data set [5] is described as follows: Metabolic stability in human liver microsomes. Particulars: for microsomal CLint: 0.5 mg protein/mL. The format is in vitro ADME. The method, boiled down: as §1
Setting [6] is: maximum activation rate, TOP of fitted curve.

Consider `CCS(=O)(=O)c1ccc(C(CO)C(=O)Nc2cc(Cl)c(-c3ccc(S(=O)(=O)C4CC4)cc3)c(Cl)c2)cc1` (single isomer, unassigned) [Example 38, (S)—N-(2,6-dichloro-4′-(cyclopropylsulfonyl)-[1,1′-biphenyl]-4-yl)-2-(4-(ethylsulfonyl)phenyl)-3-hydroxypropionamide or (R)—N-(2,6-dichloro-4′-(cyclopropylsulfonyl)-[1,1′-biphenyl]-4-yl)-2-(4-(ethylsulfonyl)phenyl)-3-hydroxypropionamide], for which the EC50 in data set [1] came to 22.8 nM; in data set [3] it was 124 nM; in data set [4] it was 5.9 nM. Moreover, the maximum response (Emax) in data set [1] turned out to be 179%; in data set [3], 103%; in data set [4] (setting [6]) it was 190%. Further, the figures for the “% Remaining (T = 60 min)” value in data set [2] and in data set [5] were 70.7% and 77.2%, respectively. Besides, the half-life in data set [2] is 108 min; in data set [5], over 145 min. For the same compound, the intrinsic metabolic clearance (microsomal CLint) was 12.9 µL/min/mg in data set [2] and under 9.6 µL/min/mg in data set [5].

In data set [1], `CCS(=O)(=O)c1ccc(C(COC)C(=O)Nc2cc(Cl)c(-c3ccc(S(=O)(=O)C4CC4)cc3)c(Cl)c2)cc1` (single isomer, unassigned) [Example 40, (S)—N-(2,6-dichloro-4′-(cyclopropylsulfonyl)-[1,1′-biphenyl]-4-yl)-2-(4-(ethylsulfonyl)phenyl)-3-methoxypropionamide or (R)—N-(2,6-dichloro-4′-(cyclopropylsulfonyl)-[1,1′-biphenyl]-4-yl)-2-(4-(ethylsulfonyl)phenyl)-3-methoxypropionamide] yielded a concentration for a half-maximal effect (EC50) of 25.8 nM and an Emax of 224%. Further, in data set [2], the “% Remaining (T = 60 min)” value turned out to be 71.8%, the half-life amounted to 117 min and the microsomal CLint was found to be 11.8 µL/min/mg. Further, in data set [3], the EC50 came out at 93 nM and the maximal effect (Emax) is 77.5%. The same compound returned an EC50 in data set [4] of 9.9 nM. Further, the Emax % in data set [4] (setting [6]) was determined as 199.3%. Moreover, in data set [5], the half-life is 144 min, the microsomal CLint was 9.6 µL/min/mg and the “% Remaining (T = 60 min)” value was determined as 71.1%.

As to `CCS(=O)(=O)c1ccc(CC(=O)Nc2cc(Cl)c(-c3ccc(S(=O)(=O)C4CC4)cc3)c(Cl)c2)cc1` [Example 6], the 50% effective concentration (EC50) in data set [1] is 49.2 nM; in data set [3], 13 nM; in data set [4], 3.7 nM. Moreover, the Emax is 254% in data set [1], 42.1% in data set [3] and 171% in data set [4] (setting [6]). The entries for the “% Remaining (T = 60 min)” value in data set [2] and in data set [5] were 78.60% and 82%, respectively. Besides, the half-life in data set [2] and in data set [5] was over 145 min in each case. Besides, the microsomal CLint in data set [2] and in data set [5] was under 9.6 µL/min/mg each time.
